Source: patent US11725000B2, “Apoptosis inhibitors” (National Institute of Biological Sciences, Beijing, priority 2017, dated 2023)
Read-outs that look alike come from different tables or passages of the source.

System: U2OS_Bim cells
Test: Apoptosis inhibition assay (Bim-induced apoptosis, cell viability by ATP level)
Assay type: cell-based
Conditions: U2OS_Bim cells, numbering of Tables 4a/4b, read-out: EC50
How it was run: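 Apoptosis was triggered by doxycycline (0.1 μg/mL) induction of Bim, one hour after compound addition to U2OS_Bim cells. Survival was measured after 24 h from cellular ATP (CellTiter-Glo), relative to DMSO, with zVAD at 20 μM as rescue control. Data are duplicate means, some estimated from preliminary results.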

[1] = estimated based on preliminary results

| Structure (SMILES) | EC50 [1] [µM] | also measured |
| --- | --- | --- |
| C[S+]([O-])c1nc(-c2ccc(=O)n(Cc3ccc4c(c3)OCO4)c2)cc(C(F)(F)F)n1 (stereo not drawn) [Compound 223] | < 10 |  |
| C[S+]([O-])c1nc(-c2ccc(=O)n(Cc3ccc4ocnc4c3)c2)cc(C(F)(F)F)n1 (stereo not drawn) [Compound 225] | < 10 |  |
| C[S+]([O-])c1nc(-c2ccc(=O)n(Cc3ccc4ocnc4c3)c2)cc(C(F)(F)F)n1 (stereo not drawn) [Compound 227] | < 10 |  |
| C[S+]([O-])c1nc(-c2ccc(=O)n(Cc3ccc4[nH]cnc4c3)c2)cc(C(F)(F)F)n1 (stereo not drawn) [Compound 229] | < 10 |  |
| C[S+]([O-])c1nc(-c2ccc(=O)n(Cc3ccc4c(c3)OCCO4)c2)cc(C(F)(F)F)n1 (stereo not drawn) [Compound 231] | < 10 |  |
| CNc1ccc(Cn2cc(-c3cc(C(F)(F)F)nc([S+](C)[O-])n3)ccc2=O)cc1NC (stereo not drawn) [Compound 233] | < 10 |  |
| C[S+]([O-])c1nc(-c2ccc(=O)n(Cc3ccc4c(c3)NCCN4)c2)cc(C(F)(F)F)n1 (stereo not drawn) [Compound 235] | < 10 |  |
| CNc1ccc(Cn2cc(-c3cc(C(F)(F)F)nc([S+](C)[O-])n3)ccc2=O)cc1OC (stereo not drawn) [Compound 237] | < 10 |  |
| CNc1cc(Cn2cc(-c3cc(C(F)(F)F)nc([S+](C)[O-])n3)ccc2=O)ccc1OC (stereo not drawn) [Compound 239] | < 10 |  |
| C[S+]([O-])c1nc(-c2ccc(=O)n(Cc3ccc4c(c3)OCCN4)c2)cc(C(F)(F)F)n1 (stereo not drawn) [Compound 241] | < 10 |  |
| C[S+]([O-])c1nc(-c2ccc(=O)n(Cc3ccc4c(c3)NCCO4)c2)cc(C(F)(F)F)n1 (stereo not drawn) [Compound 243] | < 10 |  |
| C[S+]([O-])c1nc(-c2ccc(=O)n(Cc3ccc4nccnc4c3)c2)cc(C(F)(F)F)n1 (stereo not drawn) [Compound 245] | < 10 |  |
| C[S+]([O-])c1nc(-c2ccc(=O)n(Cc3ccc4ncccc4c3)c2)cc(C(F)(F)F)n1 (stereo not drawn) [Compound 247] | < 10 |  |
| C[S+]([O-])c1nc(-c2ccc(=O)n(Cc3ccc4cnccc4c3)c2)cc(C(F)(F)F)n1 (stereo not drawn) [Compound 249] | < 10 |  |
| C[S+]([O-])c1nc(-c2ccc(=O)n(Cc3ccc4ccncc4c3)c2)cc(C(F)(F)F)n1 (stereo not drawn) [Compound 251] | < 10 |  |
| C[S+]([O-])c1nc(-c2ccc(=O)n(Cc3ccc4cccnc4c3)c2)cc(C(F)(F)F)n1 (stereo not drawn) [Compound 253] | < 10 |  |

| Structure (SMILES) | EC50 [1] [µM] | also measured |
| --- | --- | --- |
| CS(=O)(=O)c1nc(-c2ccc(=O)n(CC3=Cc4ccccc4C3)c2)cc(C(F)(F)F)n1 [Compound 254] | < 10 |  |
| C[S+]([O-])c1nc(-c2ccc(=O)n(CC3=Cc4ccccc4C3)c2)cc(C(F)(F)F)n1 (stereo not drawn) [Compound 255] | < 10 |  |
| CS(=O)(=O)c1nc(-c2ccc(=O)n(Cn3ccc4ccccc43)c2)cc(C(F)(F)F)n1 [Compound 256] | < 10 |  |
| C[S+]([O-])c1nc(-c2ccc(=O)n(Cn3ccc4ccccc43)c2)cc(C(F)(F)F)n1 (stereo not drawn) [Compound 257] | < 10 |  |
| COc1cn(Cn2cc(-c3cc(C(F)(F)F)nc([S+](C)[O-])n3)ccc2=O)cc1OC (stereo not drawn) [Compound 259] | < 10 |  |
| COc1ccn(Cn2cc(-c3cc(C(F)(F)F)nc(S(C)(=O)=O)n3)ccc2=O)c1 [Compound 260] | < 10 |  |
| COc1ccn(Cn2cc(-c3cc(C(F)(F)F)nc([S+](C)[O-])n3)ccc2=O)c1 (stereo not drawn) [Compound 261] | < 10 |  |
| CCc1cc(Cn2cc(-c3cc(C(F)(F)F)nc([S+](C)[O-])n3)ccc2=O)ccc1OC (stereo not drawn) [Compound 263] | < 10 |  |
| CCc1ccc(Cn2cc(-c3cc(C(F)(F)F)nc([S+](C)[O-])n3)ccc2=O)cc1OC (stereo not drawn) [Compound 265] | < 10 |  |
| CCc1ccc(Cn2cc(-c3cc(C(F)(F)F)nc([S+](C)[O-])n3)ccc2=O)cc1CC (stereo not drawn) [Compound 267] | < 10 |  |
| CCOc1cccc(Cn2cc(-c3cc(C(F)(F)F)nc([S+](C)[O-])n3)ccc2=O)c1 (stereo not drawn) [Compound 268] | < 10 |  |
| COc1ccc(Cn2cc(-c3cc(C(F)F)nc(S(=O)(=O)CCCOCc4ccccc4)n3)ccc2=O)cc1OC [Compound 272, 5-(2-((3-(benzyloxy)propyl)sulfonyl)-6-(difluoromethyl)pyrimidin-4-yl)-1-(3,4-dimethoxybenzyl)pyridin-2 (1H)-one] |  | EC50 (estimated (*Est.) / preliminary results): 0.001 to 1 µM |
| COc1ccc(OC2CCCN(c3cc(C(F)(F)F)nc(S(C)(=O)=O)n3)C2)cc1OC (stereo not drawn) [Compound 274, 4-(3-(3,4-dimethoxyphenoxy)piperidin-1-yl)-2-(methylsulfonyl)-6-(trifluoromethyl)pyrimidine] | < 100 |  |
| COc1ccc(Cn2cc(-c3cc(=O)n(C)c(S(C)(=O)=O)n3)ccc2=O)cc1OC [Compound 275, 6-(1-(3,4-dimethoxybenzyl)-6-oxo-1,6-dihydropyridin-3-yl)-3-methyl-2-(methylsulfonyl)pyrimidin-4 (3H)-one] |  | EC50 (means of duplicates): < 100 µM |
| COc1ccc(Cn2cc(-c3cc(C(F)(F)F)nc(S(=O)(=O)CCCCO)n3)ccc2=O)cc1OC [Compound 276, 1-(3,4-dimethoxybenzyl)-5-(2-((4-hydroxybutyl)sulfonyl)-6-(trifluoromethyl)pyrimidin-4-yl)pyridin-2 (1H)-one] |  | EC50 (means of duplicates): 0.001 to 1 µM |

More lines, main results first:

| EC50 [1] [µM] | Structure (SMILES) | also measured |
| --- | --- | --- |
| < 10 | COc1ccc(Cn2cc(-c3cc(-c4cnco4)nc([S+](C)[O-])n3)ccc2=O)cc1OC (stereo not drawn) [Compound 214] |  |
| < 10 | COc1ccc(Cn2cc(-c3cc(-c4cncs4)nc(S(C)(=O)=O)n3)ccc2=O)cc1OC [Compound 215] |  |
| < 10 | COc1ccc(Cn2cc(-c3cc(-c4cncs4)nc([S+](C)[O-])n3)ccc2=O)cc1OC (stereo not drawn) [Compound 216] |  |
| < 10 | COc1ccc(Cn2cc(-c3cc(-c4nccs4)nc(S(C)(=O)=O)n3)ccc2=O)cc1OC [Compound 217] |  |
| < 10 | COc1ccc(Cn2cc(-c3cc(-n4cccc4)nc([S+](C)[O-])n3)ccc2=O)cc1OC (stereo not drawn) [Compound 218] |  |
| < 10 | COc1ccc(Cn2cc(-c3cc(-n4cccc4)nc(S(C)(=O)=O)n3)ccc2=O)cc1OC [Compound 219] |  |
| < 10 | COc1ccc(Cn2cc(-c3cc(-n4cccn4)nc([S+](C)[O-])n3)ccc2=O)cc1OC (stereo not drawn) [Compound 220] |  |
| < 10 | COc1ccc(Cn2cc(-c3cc(-n4ccnc4)nc([S+](C)[O-])n3)ccc2=O)cc1OC (stereo not drawn) [Compound 221] |  |
| < 10 | COc1ccc(Cn2cc(-c3cc(-n4ccnc4)nc(S(C)(=O)=O)n3)ccc2=O)cc1OC [Compound 222] |  |
| < 10 | CS(=O)(=O)c1nc(-c2ccc(=O)n(Cc3ccc4ocnc4c3)c2)cc(C(F)(F)F)n1 [Compound 224] |  |
| < 10 | CS(=O)(=O)c1nc(-c2ccc(=O)n(Cc3ccc4scnc4c3)c2)cc(C(F)(F)F)n1 [Compound 226] |  |
| < 10 | CS(=O)(=O)c1nc(-c2ccc(=O)n(Cc3ccc4[nH]cnc4c3)c2)cc(C(F)(F)F)n1 [Compound 228] |  |
| < 10 | CS(=O)(=O)c1nc(-c2ccc(=O)n(Cc3ccc4c(c3)OCCO4)c2)cc(C(F)(F)F)n1 [Compound 230] |  |
| < 10 | CNc1ccc(Cn2cc(-c3cc(C(F)(F)F)nc(S(C)(=O)=O)n3)ccc2=O)cc1NC [Compound 232] |  |
| < 10 | CS(=O)(=O)c1nc(-c2ccc(=O)n(Cc3ccc4c(c3)NCCN4)c2)cc(C(F)(F)F)n1 [Compound 234] |  |
| < 10 | CNc1ccc(Cn2cc(-c3cc(C(F)(F)F)nc(S(C)(=O)=O)n3)ccc2=O)cc1OC [Compound 236] |  |

| EC50 [1] [µM] | Structure (SMILES) | also measured |
| --- | --- | --- |
| < 10 | CNc1cc(Cn2cc(-c3cc(C(F)(F)F)nc(S(C)(=O)=O)n3)ccc2=O)ccc1OC [Compound 238] |  |
| < 10 | CS(=O)(=O)c1nc(-c2ccc(=O)n(Cc3ccc4c(c3)OCCN4)c2)cc(C(F)(F)F)n1 [Compound 240] |  |
| < 10 | CS(=O)(=O)c1nc(-c2ccc(=O)n(Cc3ccc4c(c3)NCCO4)c2)cc(C(F)(F)F)n1 [Compound 242] |  |
| < 10 | CS(=O)(=O)c1nc(-c2ccc(=O)n(Cc3ccc4nccnc4c3)c2)cc(C(F)(F)F)n1 [Compound 244] |  |
| < 10 | CS(=O)(=O)c1nc(-c2ccc(=O)n(Cc3ccc4ncccc4c3)c2)cc(C(F)(F)F)n1 [Compound 246] |  |
| < 10 | CS(=O)(=O)c1nc(-c2ccc(=O)n(Cc3ccc4cnccc4c3)c2)cc(C(F)(F)F)n1 [Compound 248] |  |
| < 10 | CS(=O)(=O)c1nc(-c2ccc(=O)n(Cc3ccc4ccncc4c3)c2)cc(C(F)(F)F)n1 [Compound 250] |  |
| < 10 | CS(=O)(=O)c1nc(-c2ccc(=O)n(Cc3ccc4cccnc4c3)c2)cc(C(F)(F)F)n1 [Compound 252] |  |
| < 10 | COc1cn(Cn2cc(-c3cc(C(F)(F)F)nc(S(C)(=O)=O)n3)ccc2=O)cc1OC [Compound 258] |  |
| < 10 | CCc1cc(Cn2cc(-c3cc(C(F)(F)F)nc(S(C)(=O)=O)n3)ccc2=O)ccc1OC [Compound 262] |  |
| < 10 | CCc1ccc(Cn2cc(-c3cc(C(F)(F)F)nc(S(C)(=O)=O)n3)ccc2=O)cc1OC [Compound 264] |  |
| < 10 | CCc1ccc(Cn2cc(-c3cc(C(F)(F)F)nc(S(C)(=O)=O)n3)ccc2=O)cc1CC [Compound 266] |  |
| < 10 | CCC(=O)c1cc(-c2ccc(=O)n(Cc3ccc(OC)c(OC)c3)c2)nc(S(C)(=O)=O)n1 [Compound 269, 1-(3,4-dimethoxybenzyl)-5-(2-(methylsulfonyl)-6-propionylpyrimidin-4-yl)pyridin-2 (1H)-one] |  |
| < 10 | CCC(F)(F)c1cc(-c2ccc(=O)n(Cc3ccc(OC)c(OC)c3)c2)nc(S(C)(=O)=O)n1 [Compound 270, 5-(6-(1,1-difluoropropyl)-2-(methylsulfonyl)pyrimidin-4-yl)-1-(3,4-dimethoxybenzyl)pyridin-2 (1H)-one] |  |
| < 10 | COc1ccc(Cn2cc(-c3cc(C(=O)c4ccccc4)nc(S(C)(=O)=O)n3)ccc2=O)cc1OC [Compound 271, 5-(6-benzoyl-2-(methylsulfonyl)pyrimidin-4-yl)-1-(3,4-dimethoxybenzyl)pyridin-2 (1H)-one] |  |
| 1 to 10 | COc1ccc(Cn2cc(-c3cc(C(F)F)nc(S(=O)(=O)CCCO)n3)ccc2=O)cc1OC [Compound 273, 5-(6-(difluoromethyl)-2-((3-hydroxypropyl)sulfonyl)pyrimidin-4-yl)-1-(3,4-dimethoxybenzyl)pyridin-2 (1H)-one] |  |
